Reference: US20130317045A1, “THIENOPYRIDINE AND THIENOPYRIMIDINE COMPOUNDS AND METHODS OF USE THEREOF” (AMBIT BIOSCIENCES CORPORATION, priority 2010, published 2013)

How the values were obtained:
[1] = test system: GM-CSFR/JAK2/STAT5 pathway in CSTF-1 cells; assay: CSTF-1 cell-based reporter assay (beta-lactamase, GM-CSF stimulated); set-up: species or system human; settings: Homo sapiens; GM-CSF at 2 ng/mL, 4 hours; read-out: Cell Assay: CS TF-1 reporter assay IC50
Protocol: CSTF-1 Cell-Based Reporter Assay
CSTF-1 cells are derived from the human erythroleukemia cell line that is growth dependent on GM-CSF and has an intact GM-CSFR/JAK2/STAT5 pathway. The cell line contains stably integrated beta-lactamase reporter gene under the control of the […] (irf 1) response element recognized by the activated transcription factor STATS. csTF-1 cells (Invitrogen K1219) were washed with assay media (97% OPTIMEM/ 0.5% dialyzed FBS/0.1 mM NEAA/1 mM Na pyr/P/S) and seeded in the same media at 5×10^5 cell/mL in T150 flask. After 16 hour incubation, cells were seeded at 2×10^5 cell/well in 50 μl volume, into Costar, clear bottom, 96-well assay plates. Serial dilutions of compounds were added to the plates with final DMSO concentration at 0.5% and GM-CSF at 2 ng/mL and the plates were then incubated at […] and 5% CO2 for 4 hours. The plates were brought to room temperature before adding Substrate Mixture according to manufacturer's protocol (Invitrogen, Catalog #K1085). The assay plates containing the substrate mixture were incubated in the dark at room temperature for 2 hours. Blue and green fluorescence was measured with excitation at 409 nm and emission at 460 nm (for blue) and excitation at 409 nm and emission at 530 nm (for green) using Spectra Max Gemini EM.

JAK2 = target: T1, JAK2 (Homo sapiens, UniProt O60674); assay: Competition binding assay, JAK2
T1 construct: made in house
T1 sequence (O60674 whole entry): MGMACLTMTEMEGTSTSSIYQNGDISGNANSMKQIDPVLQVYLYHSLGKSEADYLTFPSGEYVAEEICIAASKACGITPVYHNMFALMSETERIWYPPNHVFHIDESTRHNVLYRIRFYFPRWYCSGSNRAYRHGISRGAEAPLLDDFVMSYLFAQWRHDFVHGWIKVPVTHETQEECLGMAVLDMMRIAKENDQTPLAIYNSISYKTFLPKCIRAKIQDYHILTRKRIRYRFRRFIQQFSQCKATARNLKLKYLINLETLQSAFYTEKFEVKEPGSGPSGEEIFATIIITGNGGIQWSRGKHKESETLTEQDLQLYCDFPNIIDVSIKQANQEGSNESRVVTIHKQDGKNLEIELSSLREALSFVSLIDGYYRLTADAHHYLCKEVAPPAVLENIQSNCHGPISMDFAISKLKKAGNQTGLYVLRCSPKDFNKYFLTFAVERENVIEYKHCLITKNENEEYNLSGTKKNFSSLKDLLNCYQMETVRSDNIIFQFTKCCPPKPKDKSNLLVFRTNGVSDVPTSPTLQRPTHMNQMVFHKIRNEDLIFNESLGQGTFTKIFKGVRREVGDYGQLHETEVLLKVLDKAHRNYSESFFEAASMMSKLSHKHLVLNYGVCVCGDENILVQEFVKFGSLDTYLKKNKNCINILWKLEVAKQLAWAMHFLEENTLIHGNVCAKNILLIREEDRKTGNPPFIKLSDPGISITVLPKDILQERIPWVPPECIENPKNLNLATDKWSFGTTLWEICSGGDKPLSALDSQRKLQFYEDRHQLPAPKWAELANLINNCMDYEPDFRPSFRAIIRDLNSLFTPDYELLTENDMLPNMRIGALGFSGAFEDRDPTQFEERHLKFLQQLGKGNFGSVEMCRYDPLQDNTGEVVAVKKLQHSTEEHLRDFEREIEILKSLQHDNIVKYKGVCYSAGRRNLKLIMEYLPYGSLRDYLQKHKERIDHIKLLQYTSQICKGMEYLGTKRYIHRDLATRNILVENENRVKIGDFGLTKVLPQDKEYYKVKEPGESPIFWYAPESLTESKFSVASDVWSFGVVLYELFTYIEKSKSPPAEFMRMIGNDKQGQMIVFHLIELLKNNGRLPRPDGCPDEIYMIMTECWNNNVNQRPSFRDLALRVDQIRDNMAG
Source text: (§1) Competition Binding Assay to Determine Binding Constants (Kd) of the Compounds Against JAK Kinases
(§2) Competition binding assays used herein were developed, validated and performed as described in Fabian et al., Nature Biotechnology 2005, 23,329-336. Kinases were produced as fusions to T7 phage (See, Fabian et al. or WO04/015142) or alternatively, the kinases were expressed in HEK-293 cells and subsequently tagged with DNA for PCR detection (See, WO08/005310). For the binding assays, streptavidin-coated magnetic beads were treated with biotinylated affinity ligands for 30 min at rt to generate affinity resins. The liganded beads were blocked with excess biotin and washed with blocking buffer (SeaBlock (Pierce), 1% BSA, 0.05% Tween 20, 1 mM DTT) to remove unbound ligand and to reduce non-specific binding. Binding reactions were assembled by combining kinase, liganded affinity beads, and test compounds in 1× binding buffer (20% SeaBlock, 0.17×PBS, 0.05% Tween 20, 6 mM DTT). Test compounds were prepared as 100× stocks in DMSO and rapidly diluted into the aqueous environment. DMSO was added to control assays lacking a test compound. Primary screen interactions were performed in polypropylene 384-well plates in a final volume of 34 μL, while Kd determinations were performed in polystyrene 96-well plates in a final volume of 135 μL. The assay plates were incubated at room temperature with shaking for 1 hour, long enough for binding reactions to reach equilibrium, and the affinity beads were washed extensively with wash buffer (1× PBS, 0.05% Tween 20) to remove unbound protein. The beads were then resuspended in elution buffer (1× PBS, 0.05% Tween 20, 2 μM non-biotinylated affinity ligand) and incubated at room temperature with shaking for 30 min. The kinase concentration in the eluates was measured by quantitative PCR. Each kinase was tested individually against each compound. Kds were determined using eleven serial threefold dilutions. A selectivity score, which is a quantitative measure of selectivity of a compound against a panel of enzymes, may be calculated for a compound by dividing the number of enzymes for which a compound meets a set criteria, (for example, a binding constant of 100 nM or less), by the total number of enzymes tested.

[2] = test system: distinct kinases tested excluding mutant variants, typically 359 or 386 kinases; assay: Kinase selectivity score from competition binding panel; settings: compound at 10 μM; fraction of kinases with inhibition of 90% or greater
Protocol: as §2

TYK2 = target: T2, TYK2 (Homo sapiens, UniProt P29597); assay: Competition binding assay, TYK2
T2 construct: made in house
T2 sequence (P29597 whole entry): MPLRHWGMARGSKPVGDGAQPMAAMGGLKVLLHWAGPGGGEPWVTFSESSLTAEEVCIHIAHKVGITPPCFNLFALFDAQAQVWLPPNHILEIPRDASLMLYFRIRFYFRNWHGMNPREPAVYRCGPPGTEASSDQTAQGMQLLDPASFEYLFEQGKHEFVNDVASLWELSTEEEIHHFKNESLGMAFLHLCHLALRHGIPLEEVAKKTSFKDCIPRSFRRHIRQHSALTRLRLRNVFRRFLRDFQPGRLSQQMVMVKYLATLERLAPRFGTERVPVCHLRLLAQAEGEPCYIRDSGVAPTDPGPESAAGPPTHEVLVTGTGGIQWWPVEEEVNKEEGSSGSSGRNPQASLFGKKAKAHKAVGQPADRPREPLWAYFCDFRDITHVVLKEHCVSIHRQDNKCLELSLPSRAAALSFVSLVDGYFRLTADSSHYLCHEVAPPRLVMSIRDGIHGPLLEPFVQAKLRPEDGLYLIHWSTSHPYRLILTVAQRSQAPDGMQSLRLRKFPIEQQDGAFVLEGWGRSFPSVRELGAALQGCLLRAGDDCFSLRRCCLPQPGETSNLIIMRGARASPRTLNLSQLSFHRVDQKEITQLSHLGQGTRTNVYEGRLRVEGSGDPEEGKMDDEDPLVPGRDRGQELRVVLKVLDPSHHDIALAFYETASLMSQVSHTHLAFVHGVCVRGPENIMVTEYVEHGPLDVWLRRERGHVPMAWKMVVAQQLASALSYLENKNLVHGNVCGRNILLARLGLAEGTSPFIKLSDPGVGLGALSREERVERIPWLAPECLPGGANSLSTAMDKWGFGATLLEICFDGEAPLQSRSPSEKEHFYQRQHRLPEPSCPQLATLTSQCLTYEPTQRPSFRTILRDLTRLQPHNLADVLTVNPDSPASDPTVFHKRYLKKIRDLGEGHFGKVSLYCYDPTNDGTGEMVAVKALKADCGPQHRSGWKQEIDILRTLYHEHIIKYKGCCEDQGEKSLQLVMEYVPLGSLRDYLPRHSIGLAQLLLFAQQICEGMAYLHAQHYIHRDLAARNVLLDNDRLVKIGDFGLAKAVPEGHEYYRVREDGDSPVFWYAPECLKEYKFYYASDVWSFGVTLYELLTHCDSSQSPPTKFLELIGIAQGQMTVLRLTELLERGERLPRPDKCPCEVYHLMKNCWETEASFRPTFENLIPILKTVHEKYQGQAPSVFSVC
Source text: as §1, §2

JAK3 = target: T3, JAK3 (Homo sapiens, UniProt P52333); assay: Competition binding assay, JAK3
T3 construct: made in house
T3 sequence (P52333 1-1124): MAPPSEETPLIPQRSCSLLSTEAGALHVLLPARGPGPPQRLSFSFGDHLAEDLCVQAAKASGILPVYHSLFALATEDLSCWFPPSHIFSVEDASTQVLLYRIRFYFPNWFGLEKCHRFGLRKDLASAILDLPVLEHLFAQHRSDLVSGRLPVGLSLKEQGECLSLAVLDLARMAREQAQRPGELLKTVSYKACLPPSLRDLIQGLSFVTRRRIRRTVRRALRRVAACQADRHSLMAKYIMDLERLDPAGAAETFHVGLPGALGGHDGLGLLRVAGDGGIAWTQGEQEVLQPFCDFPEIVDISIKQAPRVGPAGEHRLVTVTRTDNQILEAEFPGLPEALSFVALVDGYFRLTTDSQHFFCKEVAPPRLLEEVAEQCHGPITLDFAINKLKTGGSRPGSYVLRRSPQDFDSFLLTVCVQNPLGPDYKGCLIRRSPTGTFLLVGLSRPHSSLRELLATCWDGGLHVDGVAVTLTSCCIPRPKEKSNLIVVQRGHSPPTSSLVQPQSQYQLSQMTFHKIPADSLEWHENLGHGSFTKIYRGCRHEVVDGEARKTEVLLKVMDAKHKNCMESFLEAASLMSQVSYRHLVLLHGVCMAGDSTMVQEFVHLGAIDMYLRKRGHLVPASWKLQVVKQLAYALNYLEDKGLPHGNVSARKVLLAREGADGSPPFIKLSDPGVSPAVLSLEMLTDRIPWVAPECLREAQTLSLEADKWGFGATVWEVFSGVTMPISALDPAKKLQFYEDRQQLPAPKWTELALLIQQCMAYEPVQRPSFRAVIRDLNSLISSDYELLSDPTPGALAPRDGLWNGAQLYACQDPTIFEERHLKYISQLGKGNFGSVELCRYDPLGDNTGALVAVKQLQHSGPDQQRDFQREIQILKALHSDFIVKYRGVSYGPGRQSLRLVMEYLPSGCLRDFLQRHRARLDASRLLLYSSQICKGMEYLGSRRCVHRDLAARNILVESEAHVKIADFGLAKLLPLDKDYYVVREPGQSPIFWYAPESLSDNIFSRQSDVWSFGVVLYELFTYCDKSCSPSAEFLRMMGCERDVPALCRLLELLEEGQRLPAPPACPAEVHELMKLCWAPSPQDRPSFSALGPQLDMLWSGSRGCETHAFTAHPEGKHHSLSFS
Source text: as §1, §2

| Structure (SMILES) | IC50 [1] [nM] | Kd (JAK2) [nM] | S-Score: S(10) at 10 μM [2] | Kd (TYK2) [nM] | Kd (JAK3) [nM] |
| --- | --- | --- | --- | --- | --- |
| Cc1cc(Nc2nc(C(=O)c3ccc(F)cc3)nc3cc(C)sc23)n[nH]1 [Example 20, (4-fluorophenyl)(6-methyl-4-(5-methyl-1H-pyrazol-3-ylamino)thieno[3,2-d]pyrimidin-2-yl)methanone] | ≤ 100 | ≤ 1 | B (0.3 < B ≦ 0.4) | 10 to 100 | ≤ 10 |
| Cc1cc(Nc2nc(C(F)(F)c3ccc(F)cc3)nc3sccc23)n[nH]1 [Example 1, 2-(difluoro(4-fluorophenyl)methyl)-N-(5-methyl-1H-pyrazol-3-yl)thieno[2,3-d]pyrimidin-4-amine] | ≤ 100 | ≤ 1 | B (0.3 < B ≦ 0.4) | ≤ 10 | ≤ 10 |
| Cc1cc(Nc2nc(C(F)(F)c3ccc(F)cn3)nc3ccsc23)n[nH]1 [Example 33, 2-(difluoro(5-fluoropyridin-2-yl)methyl)-N-(5-methyl-1H-pyrazol-3-yl)thieno[3,2-d]pyrimidin-4-amine] | ≤ 100 | ≤ 1 | C (0.4 < C ≦ 0.5) | ≤ 10 | ≤ 10 |
| Cc1cc(Nc2nc(C(F)(F)c3ccc(F)cc3)nc3cc(C(C)(C)C)sc23)n[nH]1 [Example 30, 6-tert-butyl-2-(difluoro(4-fluorophenyl)methyl)-N-(5-methyl-1H-pyrazol-3-yl)thieno[3,2-d]pyrimidin-4-amine] | 100 to 500 | 1 to 10 | A (A ≦ 0.3) | > 100 | 10 to 100 |
